Measured values taken from patent US20190030018A1 (Celgene Corporation, priority 2017, published 2019).
Like-named read-outs stand apart in the source and are kept apart here.

What was measured:
[1] = tested on: stomach cancer cell line GA0087; assay: GA0087 PDX model ex vivo 3D methylcellulose CellTiter-Glo cell viability assay (IC50, matrix combination, Combination Index)
Experimental: (§1) Materials and Methods: The stomach cancer cell line GA0087 was used in this study. […] Culture media was purchased from GIBCO or Sigma, USA.
(§2) Everolimus was obtained from Selleck. Cisplatin was used as a reference drug, and was obtained from Hospira Australia pty Ltd.
(§3) PDX tumor models were maintained at Crownbio HuPrime animal facility. Tumor growth was monitored weekly. Tumor volumes were measured in two dimensions using a caliper, and the volume was expressed in mm^3 using the formula: V=0.5 a×b^2 where a and b are the long and short diameters of the tumor, respectively. • 2. Mouse xenografts at tumor volume around 800 mm^3 were housed with sterile surgical tools and tumor tissue was minced into tiny pieces with scissors in small amount of PBS on a new tissue culture plate. • 3. The cell suspension was filtered through Falcon cell strainer. The nylon mesh was washed 3-5 times with PBS. • 4. The cell suspension was centrifuged at 1000 rpm for 5 minutes and the pellet was washed with PBS and centrifuged again. • 5. Red blood cells were removed using red blood cell lysis buffer. • 6. The cell suspension was centrifuged at 1000 rpm for 5 minutes and the pellet was washed with PBS and centrifuged again. • 7. The cell pallet was re-suspended with appropriate cell culture media for different cells. • 8. Cells were counted with Countstar by trypan blue exclusion.
(§4) Day −1: Cell Plating • 1. The cells were harvested during the logarithmic growth period. The harvested cells were cultured with appropriate cell media and centrifuged at 1000 rpm for 3 minutes. […] (Cell concentration was adjusted according to the data base or density optimization assay). • 3. 3.5 mL of cell suspension was mixed with 6.5 mL of 1% methylcellulose. […] 90 μL cell suspensions were added to 96-well plates according to plate map with final cell density. Two duplicate plates were set up: one for day 0 reading (T0) and the other was cultured in incubator for reading at the end point.
(§5) Day 0: T0 Plate Reading and Compound Treatment • 5.10 μL culture medium was added to T0 plate in each well for T0 reading. • 6.100 μl CellTiter-Glo® Reagent was added to each well. • 7. The contents were mixed for 2 minutes on an orbital shaker to facilitate cell lysis. • 8. The plates were allowed to incubate at room temperature for 10 minutes to stabilize luminescent signal. • 9. A backseal black sticker was placed to the bottom of each plate. • 10. The luminescence was read using EnVision Multi Label Reader. • 11.
(§6) The solutions were stored at −20° C. […] The response score was calculated by normalizing to DMSO control. The combination index (CI) was calculated using Chou and Talalay method, wherein a CI of less than 1 indicates synergy. Cisplatin was used as control in the single compound dose response, but was not included in the combination test.
(§7) After drug incubation, pictures for representative wells were taken using a phase contrast microscope. • 13. 100 μL CellTiter-Glo® Reagent was added to each well. • 14. Contents were mixed for 2 minutes on an orbital shaker to facilitate cell lysis. • 15. The plates were allowed to incubate at room temperature for 10 minutes to stabilize luminescent signal. • 16. Backseal black sticker was placed to the bottom of each plate. • 17. Luminescence was recorded using EnVision Multi Label Reader.
(§8) In order to calculate IC50, a dose-response curve was fitted using nonlinear regression model with a sigmoidal dose response. The formula of surviving rate is shown below, and the IC50 was automatically produced by GraphPad Prism 5.0.
(§9) The surviving rate (%)=(LumTest article−LumMedium control)/(LumNone treated−LumMedium control)×100%.

[2] = as above
Experimental: as §1, §2, §3, §4, §5, §6, §7, §8, §9

[3] = tested on: GSPT1 and mTORC1 effectors in BON cells; assay: Western blot of BON cell lysates after 120 h treatment; format: cell-based
Experimental: BON cells were cultured in DMEM: F12K media containing 10% fetal bovine serum and penicillin/streptomycin antibiotics. […] Cells were harvested and probed with antibodies for western blots and imaged using a Li-Cor Odyssey imaging system. All total and phosphorylated antibodies were obtained from Cell Signaling Technology.

[4] = tested on: peripheral blood mononuclear cells (PBMCs) from myelofibrosis patients; assay: Colony forming assay using myelofibrosis patient samples; format: cell-based, human
Excerpt: The following samples were used:
MF13: De novo MF, characterized by JAK2 wt, FLT3 wt, NPM1 wt, CEBPA wt
MF14: De novo MF, characterized by JAK2 wt, CALR exon9 mut, ASXL1 wt, MPLwt

## O=C1CCC(N2Cc3cc(CNC(=O)C(F)(F)c4ccc(Cl)cc4)ccc3C2=O)C(=O)N1 (centres unmarked) [Compound 1, 2-(4-chlorophenyl)-N-((2-(2,6-dioxopiperidin-3-yl)-1-oxoisoindolin-5-yl)methyl)-2,2-difluoroacetamide]
[1]; GA0087-1st experiment
  Maximal Inhibition: 90.71%
[1]; GA0087-2nd experiment
  Maximal Inhibition: 92.41%
[1]; ex vivo 3D assay, 7 days, single agent
  activity in the GA0087 model: shows activity
[2]; read-out: Absolute IC50, GA0087-1st experiment
  IC50: 20.3 nM
[2]; read-out: Absolute IC50, GA0087-2nd experiment
  IC50: 16.4 nM
[2]; read-out: Relative IC50, GA0087-1st experiment
  IC50: 16.3 nM
[2]; read-out: Relative IC50, GA0087-2nd experiment
  IC50: 15.2 nM
[3]
  GSPT1 degradation: dose dependent GSPT1 degradation
  effect on mTORC1 effectors (p4EBP1, phosphorylation of S6): no direct effect
[4]; 14 days in methocult media, samples MF13, MF14
  number of colony forming cells: reduced by Compound 1 in a dose dependent manner
[4]; compared with samples from healthy volunteers
  IC50 in colony forming assay: lower than IC50s observed in samples from healthy volunteers
